# Values of other authors as cited in US20230170070A1, “SYSTEM AND METHOD FOR PROVIDING FERTILITY ENHANCING DIETARY RECOMMENDATIONS IN INDIVIDUALS WITH SPERM CONDITIONS” (SOCIETE DES PRODUITS NESTLE S.A., priority 2020, published 2023).
# Read-outs that look alike come from different tables or passages of the source.
# Key:
# sperm cells = settings: excessive alcohol
# oxidative stress status = settings: exogenous supplementation; both in vitro and in vivo
# semen quality [1] = settings: for semen quality: In RCTs
# [2] = for pregnancy rate in the female partner: In RCTs
# semen quality [3] = settings: from cold water fish
# [4] = among men with astheno- or oligoasthenozoospermia
compound,measurement,setting,value
CCO [Alcohol],hormones in men,sperm cells,decreases hormones in
same,sperm cells,sperm cells,men and degenerates
"O=C(O)CCCCC1CCSS1 (stereo not drawn) [Alpha-lipoic acid (ALA), Alpha-lipoic acid]",oxidative stress status,oxidative stress status,improve oxidative stress
COc1cc(/C=C/C(=O)CC(=O)/C=C/c2ccc(O)c(OC)c2)ccc1O [Curcumin],semena quality parameters,semen quality [1]; among oligoasthenoteratozoospermic men,Curcumin improved
N[C@@H](CCC(=O)N[C@@H](CS)C(=O)NCC(=O)O)C(=O)O [Glutathione],sperm concentration,semen quality [1]; glutathione supplementation,Improves sperm
same,sperm morphology,semen quality [1]; glutathione supplementation,Improves sperm
same,sperm motility,semen quality [1]; glutathione supplementation,Improves sperm
"CC(=O)O[C@H](CC(=O)[O-])C[N+](C)(C)C [L-acetyl carnitine (LAC), L-acetyl carnitine]",sperm concentration,semen quality [1]; [4],can significantly improve
same,total sperm counts,semen quality [1]; [4],can significantly improve
C[N+](C)(C)C[C@H](O)CC(=O)[O-] [L-carnitine],sperm concentration,semen quality [1]; [4],can significantly improve
same,total sperm counts,semen quality [1]; [4],can significantly improve
CC(C)=CCC/C(C)=C/C=C/C(C)=C/C=C/C(C)=C/C=C/C=C(C)/C=C/C=C(C)/C=C/C=C(\C)CCC=C(C)C [Lycopene],sperm parameters,semen quality [1]; in vivo,Improve sperm
O[C@H]1[C@H](O)[C@@H](O)[C@H](O)[C@@H](O)[C@H]1O [Myoinositol],progressive motility,semen quality [1]; myoinositol supplementation,increase in sperm
same,sperm concentration,semen quality [1]; myoinositol supplementation,increase in sperm
same,sperm count,semen quality [1]; myoinositol supplementation,increase in sperm
[Se] [Selenium],total sperm motility,semen quality [1]; compared with placebo,increase in total sperm
O=C1O[C@H]([C@@H](O)CO)C(O)=C1O [Vitamin C],progressive sperm motility,semen quality [1]; in vivo,increase in progressive
C=C1CC[C@H](O)C/C1=C/C=C1\CCC[C@]2(C)[C@@H]([C@H](C)CCCC(C)C)CC[C@@H]12 [Vitamin D],live birth rate,"[2]; among oligozoospermic men, high-dose supplementation compared to placebo",uptake. A higher live
[Zn] [Zinc],semen quality,semen quality [1],shown to increase
same,pregnancy rate in the female partner,[2],shown to increase
Vitamin E,semen quality,semen quality [1],been shown to increase
same,pregnancy rate in the female partner,[2],been shown to increase
isoflavones,non-genomic effects on sperm capacitation and acrosome reaction,sperm,genomic negative
omega-3 fatty acids,influence on sperm morphology,semen quality [3],positive influence
